Test results reported in article PMC9180949, “Design, Spectroscopy, and Assessment of Cholinesterase Inhibition and Antimicrobial Activities of Novel Coumarin–Thiadiazole Hybrids” (International Journal of Molecular Sciences, 2022).

Columns and labels:
[1] = target: T1, AChE; acetylcholinesterase (E.C. 3.1.1.7) from Electrophorus electricus (Electrophorus electricus, UniProt O42275); assay: Ellman assay, absorbance at […] nm; format: biochemical; settings: read-out: AChE / IC50 (μM) ± SD *
T1 construct: commercial enzyme from Sigma-Aldrich, EC 3.1.1.7, purified from electric eel
T1 sequence (O42275 24-633): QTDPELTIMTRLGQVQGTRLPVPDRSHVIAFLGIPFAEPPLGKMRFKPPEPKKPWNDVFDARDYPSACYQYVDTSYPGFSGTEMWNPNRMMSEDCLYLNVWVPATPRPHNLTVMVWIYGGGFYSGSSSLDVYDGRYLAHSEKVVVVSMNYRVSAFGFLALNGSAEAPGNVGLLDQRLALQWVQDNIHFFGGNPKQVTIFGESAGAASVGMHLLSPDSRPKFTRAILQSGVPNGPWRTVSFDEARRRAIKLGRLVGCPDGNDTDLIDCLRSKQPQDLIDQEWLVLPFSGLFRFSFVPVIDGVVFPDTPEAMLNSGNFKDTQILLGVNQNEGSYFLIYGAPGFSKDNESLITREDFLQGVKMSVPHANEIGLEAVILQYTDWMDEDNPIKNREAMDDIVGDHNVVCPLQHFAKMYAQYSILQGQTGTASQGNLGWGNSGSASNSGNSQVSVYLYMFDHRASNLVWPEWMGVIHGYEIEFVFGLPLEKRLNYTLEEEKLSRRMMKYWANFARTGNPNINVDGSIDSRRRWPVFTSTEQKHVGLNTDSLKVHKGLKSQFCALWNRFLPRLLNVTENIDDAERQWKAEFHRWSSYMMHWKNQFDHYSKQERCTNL

[2] = target: T2, BuChE; butyrylcholinesterase (EC 3.1.1.8) from equine serum (Equus caballus, UniProt P81908); assay: Ellman assay, absorbance at […] nm; format: biochemical; settings: read-out: BuChE / IC50 (μM) ± SD *
T2 construct: gene BCHE; commercial enzyme from equine serum, Sigma-Aldrich, EC 3.1.1.8
T2 sequence (P81908 whole entry): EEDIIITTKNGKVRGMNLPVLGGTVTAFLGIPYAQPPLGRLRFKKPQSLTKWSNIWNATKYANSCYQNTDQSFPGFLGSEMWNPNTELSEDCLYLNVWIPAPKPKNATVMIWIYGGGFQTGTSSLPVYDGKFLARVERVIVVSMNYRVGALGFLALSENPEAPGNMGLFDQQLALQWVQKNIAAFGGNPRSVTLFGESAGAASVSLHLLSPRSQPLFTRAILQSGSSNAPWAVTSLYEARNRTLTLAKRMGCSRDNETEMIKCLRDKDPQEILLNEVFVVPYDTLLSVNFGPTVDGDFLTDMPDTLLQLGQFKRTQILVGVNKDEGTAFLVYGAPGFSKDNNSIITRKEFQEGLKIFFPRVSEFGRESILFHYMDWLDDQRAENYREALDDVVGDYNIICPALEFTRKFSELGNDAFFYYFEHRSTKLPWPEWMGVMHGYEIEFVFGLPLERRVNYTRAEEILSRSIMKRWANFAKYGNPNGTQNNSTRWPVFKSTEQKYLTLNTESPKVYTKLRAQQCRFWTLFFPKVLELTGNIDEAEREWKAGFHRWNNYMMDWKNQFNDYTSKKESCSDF

## Nc1nnc(-c2cc3cc(Br)ccc3oc2=O)s1 [compound 5, coumarin–thiadiazole hybrid 5]
[1]
  IC50: 0.183 ± 0.018 µM
[2]
  IC50: 0.261 ± 0.015 µM

## COc1cc([N+](=O)[O-])cc2cc(-c3nnc(N)s3)c(=O)oc12 [compound 7, coumarin–thiadiazole hybrid 7]
[1]
  IC50: 0.159 ± 0.015 µM
[2]
  IC50: 0.494 ± 0.024 µM

## Nc1nnc(-c2cc3cc(O)ccc3oc2=O)s1 [compound 9, coumarin–thiadiazole hybrid 9]
[1]
  IC50: 0.196 ± 0.022 µM
[2]
  IC50: 0.235 ± 0.034 µM

## Nc1nnc(-c2cc3cc([N+](=O)[O-])ccc3oc2=O)s1 [compound 6, coumarin–thiadiazole hybrid 6]
[1]
  IC50: 0.198 ± 0.016 µM
[2]
  IC50: 0.166 ± 0.022 µM

## CCN(CC)c1ccc2cc(-c3nnc(N)s3)c(=O)oc2c1 [compound 1, coumarin–thiadiazole hybrid 1]
[1]
  IC50: 0.184 ± 0.011 µM
[2]
  IC50: 0.191 ± 0.024 µM

## CCOc1cccc2cc(-c3nnc(N)s3)c(=O)oc12 [compound 3, coumarin–thiadiazole hybrid 3]
[1]
  IC50: 0.152 ± 0.003 µM
[2]
  IC50: 0.295 ± 0.024 µM

## Nc1nnc(-c2cc3cc(Cl)ccc3oc2=O)s1 [compound 4, coumarin–thiadiazole hybrid 4]
[1]
  IC50: 0.211 ± 0.01 µM
[2]
  IC50: 0.205 ± 0.014 µM

## Nc1nnc(-c2cc3ccccc3oc2=O)s1 [compound 8, coumarin–thiadiazole hybrid 8]
[1]
  IC50: 0.199 ± 0.003 µM
[2]
  IC50: 0.392 ± 0.024 µM

## Nc1nnc(-c2cc3ccc(O)cc3oc2=O)s1 [compound 10, coumarin–thiadiazole hybrid 10]
[1]
  IC50: 0.2 ± 0.012 µM
[2]
  IC50: 0.38 ± 0.01 µM

## COc1cccc2cc(-c3nnc(N)s3)c(=O)oc12 [compound 2, coumarin–thiadiazole hybrid 2]
[1]
  IC50: 0.213 ± 0.009 µM
[2]
  IC50: 0.198 ± 0.039 µM

## Nc1nnc(-c2cc3ccc(O)c(O)c3oc2=O)s1 [compound 12, coumarin–thiadiazole hybrid 12]
[1]
  IC50: 0.187 ± 0.015 µM
[2]
  IC50: 0.264 ± 0.017 µM

## Nc1nnc(-c2cc3cccc(O)c3oc2=O)s1 [compound 11, coumarin–thiadiazole hybrid 11]
[1]
  IC50: 0.165 ± 0.003 µM
[2]
  IC50: 0.202 ± 0.03 µM
